Test results reported in patent US12186467B2, “Cleaning of biological fluid” (GAMBRO LUNDIA AB, priority 2012, dated 2025).

How the values were obtained:
[1] = molecular target: T1, bovine serum albumin (BSA) (Bos taurus, UniProt P02769); assay: Removal of p-cresol from BSA by repeated addition of water and centrifugation; format: binding; details: pH 8
T1 construct: purchased Sigma-Aldrich
Method: The influence of water addition on the binding affinity of p-cresol to bovine serum albumin was investigated in this example, performed at room temperature. 1 ml of a solution comprising 0.02 mg/ml p-cresol and 40 mg/ml bovine serum albumin (BSA) was centrifuged (Visaspin®) for 20 minutes. 0.5 ml of the solution was removed and analysed.
0.5 ml water (Milli-Q quality) was added to the remaining 0.5 ml solution (p-cresol and BSA) and centrifuged (in Vivaspin®) for another 20 minutes before another 0.5 ml was removed for the analysis.
The previous experiment was repeated at elevated temperature. A 1 ml solution containing 0.02 mg/ml p-cresol and 40 mg/ml bovine serum albumin (BSA), pH 8, was centrifuged (Vivaspin®) at 50° C. for 20 minutes until 0.5 ml was removed and analysed. Then 0.5 ml water (Milli-Q) was added to the remaining 0.5 ml solution comprising p-cresol and BSA, centrifuged for 20 minutes until 0.5 ml was removed for the analysis.

[2] = Precipitation observed in displacer/BSA/p-cresol solutions; format: physicochemical
Method: The mixed solutions were centrifuged to remove protein at 5700 rpm for 70 minutes at room temperature before analysis. The pH was adjusted to 7 (physiological pH) by addition of NaOH to the samples. The samples were injected into a HPLC. The measurement of p-cresol by HPLC analysis was performed at room temperature.
The influence of the pH value on the binding affinity of the p-cresol and the binding competitors to the bovine serum albumin (BSA) was investigated. […] The pH was adjusted by adding sodium hydroxide (NaOH) or hydrochloric acid (HCl). The tests were performed with the following displacer substances: sodium salicylate, sodium octanoate and sodium acetylsalicylate. […] At pH 5 the albumin exists in the N form. The results are present in Table 4

T1 sequence (P02769 25-607): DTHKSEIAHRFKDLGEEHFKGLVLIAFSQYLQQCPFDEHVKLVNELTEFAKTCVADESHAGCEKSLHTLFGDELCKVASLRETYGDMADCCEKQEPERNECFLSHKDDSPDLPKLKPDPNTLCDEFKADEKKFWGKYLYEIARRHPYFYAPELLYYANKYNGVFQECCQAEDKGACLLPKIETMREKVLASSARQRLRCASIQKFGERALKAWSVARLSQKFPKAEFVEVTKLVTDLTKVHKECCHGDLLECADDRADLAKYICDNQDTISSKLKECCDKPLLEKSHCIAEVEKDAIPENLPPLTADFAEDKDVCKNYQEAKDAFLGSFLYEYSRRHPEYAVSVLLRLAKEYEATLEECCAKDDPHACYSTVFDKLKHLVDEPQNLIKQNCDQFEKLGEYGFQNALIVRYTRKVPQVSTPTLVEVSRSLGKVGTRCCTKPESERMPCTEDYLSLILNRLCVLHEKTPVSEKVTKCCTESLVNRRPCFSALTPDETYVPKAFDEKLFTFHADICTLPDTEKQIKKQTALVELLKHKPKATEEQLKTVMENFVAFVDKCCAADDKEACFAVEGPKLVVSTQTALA

Cc1ccc(O)cc1 [p-cresol]
p-cresol considered unbound ([1]; after addition of 5 ml water, 50° C.): About 100% | added p-cresol removed from the binding sites on BSA ([1]; water addition repeated 16 times, room temperature): ~100% | calculated amount of p-cresol removed ([1]; water addition repeated 16 times, room temperature, 0.02 mg p-cresol added): 0.01989 mg | measured amount of p-cresol ([1]; water addition repeated 20 times, 50° C., more than the added amount): 0.027 mg

CCCCCCCC(=O)[O-].[Na+] [sodium octanoate]
precipitation ([2]; sodium octanoate 100 mg/ml and 200 mg/ml, pH 6): Precipitation occurred | precipitation ([2]; sodium octanoate with BSA and p-cresol, pH 5): precipitation of the solution was observed

O=C([O-])c1ccccc1O.[Na+] [sodium salicylate]
precipitation ([2]; sodium salicylate with BSA and p-cresol, pH 4): precipitation occurred
